Reference: ChEMBL document CHEMBL3044784, “Molecular Basis of Resistance to s-Triazine Herbicides in Poa annua L. and Its Photosynthetic Properties under Different Light Conditions” (J Pestic Sci, 2001)
The source made the active and inactive calls. No cut-off for these calls is given here.

Columns and labels:
Poa annua [1] = test: Pre-emergence herbicidal activity against s-triazine-susceptible Poa annua at 1 kg/ha after 14 days by pot test; format: functional, organism-based
Poa annua [2] = test: Herbicidal activity against hydroponic culture of s-triazine-susceptible Poa annua at 1000 ppm after 14 days; format: functional, organism-based
Poa annua [3] = test: Pre-emergence herbicidal activity against s-triazine-resistant Poa annua at 0.25 kg/ha after 14 days by pot test; format: functional, organism-based
Poa annua [4] = test: Pre-emergence herbicidal activity against s-triazine-resistant Poa annua at 1 kg/ha after 14 days by pot test; format: functional, organism-based
Poa annua [5] = test: Herbicidal activity against hydroponic culture of s-triazine-resistant Poa annua at 1 ppm after 14 days; format: functional, organism-based
Poa annua [6] = test: Pre-emergence herbicidal activity against s-triazine-resistant Poa annua at 0.05 kg/ha after 14 days by pot test; format: functional, organism-based
Poa annua [7] = test: Herbicidal activity against hydroponic culture of s-triazine-susceptible Poa annua at 100 ppm after 14 days; format: functional, organism-based
Poa annua [8] = test: Pre-emergence herbicidal activity against s-triazine-resistant Poa annua at 0.5 kg/ha after 14 days by pot test; format: functional, organism-based
Poa annua [9] = test: Pre-emergence herbicidal activity against s-triazine-susceptible Poa annua at 0.5 kg/ha after 14 days by pot test; format: functional, organism-based
Poa annua [10] = test: Pre-emergence herbicidal activity against s-triazine-resistant Poa annua at 0.10 kg/ha after 14 days by pot test; format: functional, organism-based
Poa annua [11] = test: Herbicidal activity against hydroponic culture of s-triazine-resistant Poa annua at 0.1 ppm after 14 days; format: functional, organism-based
Poa annua [12] = test: Herbicidal activity against hydroponic culture of s-triazine-resistant Poa annua at 10 ppm after 14 days; format: functional, organism-based
Poa annua [13] = test: Herbicidal activity against hydroponic culture of s-triazine-resistant Poa annua at 100 ppm after 14 days; format: functional, organism-based
Poa annua [14] = test: Herbicidal activity against hydroponic culture of s-triazine-resistant Poa annua at 1000 ppm after 14 days; format: functional, organism-based
Poa annua [15] = test: Pre-emergence herbicidal activity against s-triazine-susceptible Poa annua at 0.05 kg/ha after 14 days by pot test; format: functional, organism-based
[16] = target: Photosystem Q(B) protein (Poa annua) (UniProt Q9XQA6); test: Resistant ratio, ratio of I50 for photosystem II in s-triazine-resistant Poa annua leaf thylakoid membrane to I50 for photosystem II in s-triazine-susceptible Poa annua leaf thylakoid membrane
Photosystem Q(B) protein [17] = target: T1, Photosystem Q(B) protein (Poa annua, UniProt Q9XQA6); test: Inhibition of photosystem II in s-triazine-resistant Poa annua leaf thylakoid membrane assessed as reduction of photosynthetic electron transport; details: read-out: I50
Photosystem Q(B) protein [18] = target: T1, Photosystem Q(B) protein; test: Inhibition ofphotosystem II in s-triazine-susceptible Poa annua leaf thylakoid membrane assessed as reduction of photosynthetic electron transport; details: read-out: I50
Poa annua [19] = test: Herbicidal activity against hydroponic culture of s-triazine-susceptible Poa annua at 0.1 ppm after 14 days; format: functional, organism-based
Poa annua [20] = test: Herbicidal activity against hydroponic culture of s-triazine-susceptible Poa annua at 10 ppm after 14 days; format: functional, organism-based
Poa annua [21] = test: Herbicidal activity against hydroponic culture of s-triazine-susceptible Poa annua at 1 ppm after 14 days; format: functional, organism-based

| Compound | Activity (Poa annua [1]) | Activity (Poa annua [2]) | Activity (Poa annua [3]) | Activity (Poa annua [4]) | Activity (Poa annua [5]) | Activity (Poa annua [6]) | Activity (Poa annua [7]) | Activity (Poa annua [8]) | Activity (Poa annua [9]) | Activity (Poa annua [10]) | Activity (Poa annua [11]) | Activity (Poa annua [12]) | Activity (Poa annua [13]) | Activity (Poa annua [14]) | Ratio [16] | IC50 (Photosystem Q(B) protein [17]) [nM] | IC50 (Photosystem Q(B) protein [18]) [nM] | other results |
| --- | --- | --- | --- | --- | --- | --- | --- | --- | --- | --- | --- | --- | --- | --- | --- | --- | --- | --- |
| CCNc1nc(Cl)nc(NC(C)(C)C#N)n1 | Active | inactive | inactive | inactive | inactive | inactive | inactive | inactive | Active | inactive | inactive |  |  |  |  |  |  |  |
| CCNc1nc(Cl)nc(NCC)n1 | Active | Active | inactive | inactive | inactive | inactive |  | inactive | inactive | inactive | inactive | inactive | inactive | inactive |  |  |  |  |
| CCNc1nc(NCC)nc(SC)n1 |  | Active | inactive | inactive | inactive | inactive | Active | inactive |  | inactive | inactive |  |  |  |  |  |  | Activity (Poa annua [15]): inactive |
| CSc1nc(NC(C)C)nc(NC(C)C)n1 |  | Active | inactive | inactive | inactive | inactive |  | inactive |  | inactive | inactive | inactive | inactive | inactive |  |  |  |  |
| CCNc1nc(Cl)nc(NC(C)C)n1 [ATRAZINE] | Active | Active | inactive | inactive | inactive | inactive | Active | inactive | Active | inactive | inactive | inactive | inactive |  | > 625 | > 100000 | 160 |  |
| CN(C)C(=O)Nc1ccc(Cl)c(Cl)c1 [DCMU] | Active | Active |  | Active |  |  | Active |  | Active |  | inactive | Active | Active | Active | 3.1 | 400 | 130 | Activity (Poa annua [19]): inactive; Activity (Poa annua [20]): Active |
| CCC(C)c1cc([N+](=O)[O-])cc([N+](=O)[O-])c1O (centres undefined) [DINOSEB] |  | Active |  | Active |  |  | Active |  |  |  | inactive | Active | Active | Active | 0.1 | 400 | 4000 | Activity (Poa annua [19]): inactive; Activity (Poa annua [21]): inactive |
| O=c1[nH]c2c(c(=O)n1C1CCCCC1)CCC2 [LENACIL] | Active | Active |  |  | inactive | inactive |  |  | Active |  | inactive | inactive | inactive | inactive | 20 | 20000 | 1000 |  |
